The values below come from patent publication US7470807B2, “Substituted arylalkanoic acid derivatives and use thereof” (Asahi Kasei Pharma Corporation, priority 2003, dated 2008).

Assay [1] deals with bleomycin-induced pulmonary fibrosis. The assay is described as follows: Bleomycin-induced rat pulmonary fibrosis model. Type of assay: in vivo. The settings on record: for median of the fibrosing score: bleomycin intratracheal, oral 10, 30, 100 and 300 mg/kg once or twice a day for 21 days, positive control ++ to +++; for fibrosing in groups administered with known type 4 PLA2 inhibitory compounds: bleomycin model, intraperitoneally or orally administered in a similar manner. How it is done: A suppressing effect on pulmonary fibrosing in a bleomycin-induced rat pulmonary fibrosis model, which is a pathological model of pulmonary fibrosis, was studied by the following method. Groups of BN female rats (7-week old) each consisting of seven rats were used for the test. The test animals were anesthetized with ketamine and xylazine, and the tracheae were exposed. Then, a 125 μg/0.1 ml solution of bleomycin (Nippon Kayaku) dissolved in physiological saline (Ohtsuka Pharmaceutical Factory) was injected into the tracheae by using a syringe. The negative control group was administered with 0.1 ml of saline into the tracheae.
Each test compound was suspended or dissolved in purified water containing 0.5% methylcellulose, and orally administered to the test animals at doses of 10, 30, 100 and 300 mg/5 ml/kg. The administration of the test compounds was started from the day of the bleomycin administration and performed once or twice a day for 21 days. The positive control group was administered with purified water containing 0.5% methylcellulose not added with any test compound in a similar manner. On the 21st day after the administration of bleomycin, the rats were sacrificed, and lungs were fixed with neutral buffered formalin to prepare histopathological samples. Staining of the histopathological samples was performed by the Azan method.
The histopathological samples of lungs were examined, and degree of fibrosing was represented with the following scores on the basis of formation of granulation tissues and proliferation of collagen fibers as indicators, i.e., −: no abnormality, ±: extremely mild change, +: mild change, ++: moderate change, and +++: significant change.

For a further assay, the system named is pulmonary fibrosis. As to conditions: clinical tests in the United States and Japan; cited from earlier work.

Consider “3-[4-cyclopentyloxy-3-(1H-indole-5-yl)phenyl]propionic acid [G-4]”, for which, in assay [1], the “median of the fibrosing score” value was “± to +”. As for “3-[4-cyclopentyloxy-3-(naphthalen-2-yl)phenyl]propionic acid [G-2]”, the “median of the fibrosing score” value in assay [1] is “± to +”.

With `COc1cc(C(=O)O)ccc1Cc1cn(C(c2ccccc2)c2ccccc2)c2cc(Cl)ccc12` [4-(1-benzhydryl-6-chloro-1H-indol-3-ylmethyl)-3-methoxybenzoic acid, reference compound], in assay [1], the “fibrosing in groups administered with known type 4 PLA2 inhibitory compounds” value was “mild”. Turning to `O=C(CCc1ccc(OCCS(=O)(=O)CCOC(c2ccc(Cl)cc2)c2ccc(Cl)cc2)cc1)C(F)(F)F` [4-{4-[2-(2-[bis(4-chlorophenyl)methoxy]ethylsulfonyl)ethoxy]phenyl}-1,1,1-trifluoro-2-butanone], in assay [1], the “fibrosing in groups administered with known type 4 PLA2 inhibitory compounds” value was “mild”.

As for `O=C1NC(=O)C(=Cc2ccc(C(=O)NCC3CC(SC(c4ccccc4)(c4ccccc4)c4ccccc4)CN3C(=O)c3ccccc3C(=O)c3ccc(F)cc3F)cc2)S1` (stereo not drawn) [N-{1-[2-(2,4-difluorobenzoyl)benzoyl]-4-tritylsulfanylpyrrolidin-2-ylmethyl}-4-(2,4-dioxothiazolidin-5-ylidenemethyl)benzoic acid amide], in assay [1], the “fibrosing in groups administered with known type 4 PLA2 inhibitory compounds” value is “mild”. `Cc1ccc(=O)n(-c2ccccc2)c1` [pirfenidone]: the “effect against pulmonary fibrosis in clinical tests” value in the assay on pulmonary fibrosis was “effective”.
